One experiment relates to HCV 1b-377-neo replicon cells. In words: HCV Replicon assay, HCV 1b genotype. The class given is cell-based. The conditions noted are these: Hepatitis C virus, class symbol, read-out: EC50 range against HCV 1b. The procedure:
An HCV Replicon assay was utilized in the present disclosure, and was prepared, conducted and validated as described in commonly owned PCT/US2006/022197 and in O'Boyle et. al. Antimicrob Agents Chemother. 2005 April; 49(4): 1346-53.
HCV 1b-377-neo replicon cells were used to test the currently described compound series as well as cells resistant to compound A containing a Y2065H mutation in NS5A (described in application PCT/US2006/022197). The compounds tested were determined to have more than 10-fold less inhibitory activity on cells containing the mutation than wild-type cells indicating a related mechanism of action between the two compound series. Thus, the compounds of the present disclosure can be effective to inhibit the function of the HCV NS5A protein and are understood to be as effective in combinations as previously described in application PCT/US2006/022197 and commonly owned WO/04014852. Further, the compounds of the present disclosure can be effective against the HCV 1b genotype. It should also be understood that the compounds of the present disclosure can inhibit multiple genotypes of HCV. […] In one embodiment compounds of the present disclosure are active against the 1a, 1b, 2a, 2b, 3a, 4a, and 5a genotypes.
A general note: In antiviral work, replicon cells carry a viral genome segment that copies itself.
In the case of `CCN(CC)C(C(=O)N1CCC[C@H]1c1ncc(-c2ccc3c(c2)CN(C)Cc2cc(-c4cnc([C@@H]5CCCN5C(=O)C(c5ccccc5)N(CC)CC)[nH]4)ccc2-3)[nH]1)c1ccccc1` (stereo in doubt) [Example 7, (1S,1′S) -2,2′-((6-methyl-6,7-dihydro-5H-dibenzo[c,e]azepine-3,9-diyl)bis(1H-imidazole-4,2-diyl(2S)-2,1-pyrrolidinediyl)) bis(N,N-diethyl-2-oxo-1-phenylethanamine)], the EC50 fell in the range of 0.101 to 0.999 nM.
Still for that read-out and setting: the figure for `CCN(CC)C(C(=O)N1CCC[C@H]1c1ncc(-c2ccc3c(c2)COCc2cc(-c4cnc([C@@H]5CCCN5C(=O)C(c5ccccc5)N(CC)CC)[nH]4)ccc2-3)[nH]1)c1ccccc1` (stereo in doubt) [Example 12, (1S,1′S)-2,2′-(5,7-dihydrodibenzo[c,e]oxepine-3,9-diylbis(1H-imidazole-4,2-diyl(2S)-2,1-pyrrolidinediyl))bis(N,N-diethyl-2-oxo-1-phenylethanamine)] is 0.101 to 0.999 nM.
Regarding `COC(=O)N[C@H](C(=O)N1CCC[C@H]1c1ncc(-c2ccc3c(c2)C(O)c2cc(-c4cnc([C@@H]5CCCN5C(=O)[C@@H](NC(=O)OC)C(C)C)[nH]4)ccc2-3)[nH]1)C(C)C` [Example 2, methyl ((1S)-1-(((2S)-2-(5-(9-hydroxy-7-(2-((2S)-1-((2S)-2-((methoxycarbonyl)amino)-3-methylbutanoyl)-2-pyrrolidinyl)-1H-imidazol-5-yl)-9H-fluoren-2-yl)-1H-imidazol-2-yl)-1-pyrrolidinyl)carbonyl)-2-methylpropyl)carbamate], the EC50 was 0.101 to 0.999 nM.
Same read-out and setting: the result for `COC(=O)N[C@H](C(=O)N1CCC[C@H]1c1ncc(-c2ccc3c(c2)C(N(C)C)c2cc(-c4cnc([C@@H]5CCCN5C(=O)[C@@H](NC(=O)OC)C(C)C)[nH]4)ccc2-3)[nH]1)C(C)C` [Example 3, methyl ((1S)-1-(((2S)-2-(5-(9-(dimethylamino)-7-(2-((2S)-1-((2S)-2-((methoxycarbonyl)amino)-3-methylbutanoyl)-2-pyrrolidinyl)-1H-imidazol-5-yl)-9H-fluoren-2-yl)-1H-imidazol-2-yl)-1-pyrrolidinyl)carbonyl)-2-methylpropyl)carbamate] reads 0.101 to 0.999 nM.
Still for that read-out and setting: the figure for `COC(=O)N[C@H](C(=O)N1CCC[C@H]1c1ncc(-c2ccc3c(c2)Cc2cc(-c4cnc([C@@H]5CCCN5C(=O)[C@@H](NC(=O)OC)C(C)C)[nH]4)ccc2-3)[nH]1)C(C)C` [Example 4, methyl ((1S)-1-(((2S)-2-(5-(7-(2-((2S)-1-((2S)-2-((methoxycarbonyl)amino)-3-methylbutanoyl)-2-pyrrolidinyl)-1H-imidazol-5-yl)-9H-fluoren-2-yl)-1H-imidazol-2-yl)-1-pyrrolidinyl)carbonyl)-2-methylpropyl)carbamate] is 0.001 to 0.1 nM.
The same measure, in the same setting: the figure for `COC(=O)N[C@H](C(=O)N1CCC[C@H]1c1ncc(-c2ccc3c(c2)Cc2cc(-c4cnc([C@@H]5CCCN5C(=O)[C@@H](NC(=O)OC)[C@@H](C)OC)[nH]4)ccc2-3)[nH]1)[C@@H](C)OC` [Example 5, methyl ((1S,2R)-2-methoxy-1-(((2S)-2-(5-(7-(2-((2S)-1-(N-(methoxycarbonyl)-O-methyl-L-threonyl)-2-pyrrolidinyl)-1H-imidazol-5-yl)-9H-fluoren-2-yl)-1H-imidazol-2-yl)-1-pyrrolidinyl)carbonyl)propyl)carbamate] is 0.001 to 0.1 nM; for `COC(=O)N[C@H](C(=O)N1CCC[C@H]1c1ncc(-c2ccc3c(c2)COCc2cc(-c4cnc([C@@H]5CCCN5C(=O)[C@@H](NC(=O)OC)C(C)C)[nH]4)ccc2-3)[nH]1)C(C)C` [Example 8, methyl ((1S)-1-(((2S)-2-(5-(9-(2-((2S)-1-((2S)-2-((methoxycarbonyl)amino)-3-methylbutanoyl)-2-pyrrolidinyl)-1H-imidazol-4-yl)-5,7-dihydrodibenzo[c,e]oxepin-3-yl)-1H-imidazol-2-yl)-1-pyrrolidinyl)carbonyl)-2-methylpropyl)carbamate] it is 0.001 to 0.1 nM.
For the molecule `COC(=O)N[C@@H](C)C(=O)N1CCC[C@H]1c1ncc(-c2ccc3c(c2)COCc2cc(-c4cnc([C@@H]5CCCN5C(=O)[C@H](C)NC(=O)OC)[nH]4)ccc2-3)[nH]1` [Example 9, methyl ((1S)-2-((2S)-2-(4-(9-(2-((2S)-1-(N-(methoxycarbonyl)-L-alanyl)-2-pyrrolidinyl)-1H-imidazol-4-yl)-5,7-dihydrodibenzo[c,e]oxepin-3-yl)-1H-imidazol-2-yl)-1-pyrrolidinyl)-1-methyl-2-oxoethyl)carbamate], the EC50 was in the range of 0.001 to 0.1 nM.
Same read-out and setting: the figure for `COC(=O)N[C@H](C(=O)N1CCC[C@H]1c1ncc(-c2ccc3c(c2)COCc2cc(-c4cnc([C@@H]5CCCN5C(=O)[C@@H](NC(=O)OC)C5CCOCC5)[nH]4)ccc2-3)[nH]1)C1CCOCC1` [Example 10, dimethyl (5,7-dihydrodibenzo[c,e]oxepine-3,9-diylbis(1H-imidazole-4,2-diyl(2S)-2,1-pyrrolidinediyl((1S)-2-oxo-1-(tetrahydro-2H-pyran-4-yl)-2,1-ethanediyl)))biscarbamate] is 0.101 to 0.999 nM.
Same read-out and setting: the figure for `COC(=O)NC(C(=O)N1CCC[C@H]1c1ncc(-c2ccc3c(c2)COCc2cc(-c4cnc([C@@H]5CCCN5C(=O)C(NC(=O)OC)C5CCOCC5)[nH]4)ccc2-3)[nH]1)C1CCOCC1` (stereo partly drawn) [Example 10A, dimethyl (5,7-dihydrodibenzo[c,e]oxepine-3,9-diylbis(1H-imidazole-4,2-diyl(2S)-2,1-pyrrolidinediyl(2-oxo-1-(tetrahydro-2H-pyran-4-yl)-2,1-ethanediyl)))biscarbamate] is 1 to 99 nM.
As for `COC(=O)N[C@H](C(=O)N1CCC[C@H]1c1ncc(-c2ccc3c(c2)C(C)(N(C)C)c2cc(-c4cnc([C@@H]5CCCN5C(=O)[C@@H](NC(=O)OC)C(C)C)[nH]4)ccc2-3)[nH]1)C(C)C` [Example 13, methyl ((1S)-1-(((2S)-2-(5-(9-(dimethylamino)-7-(2-((2S)-1-((2S)-2-((methoxycarbonyl)amino)-3-methylbutanoyl)-2-pyrrolidinyl)-1H-imidazol-5-yl)-9-methyl-9H-fluoren-2-yl)-1H-imidazol-2-yl)-1-pyrrolidinyl)carbonyl)-2-methylpropyl)carbamate], the EC50 lay in the range of 0.001 to 0.1 nM.
The same measure, in the same setting: the result for `COC(=O)N[C@H](C(=O)N1CCC[C@H]1c1ncc(-c2ccc3c(c2)C(C)(C)c2cc(-c4cnc([C@@H]5CCCN5C(=O)[C@@H](NC(=O)OC)C(C)C)[nH]4)ccc2-3)[nH]1)C(C)C` [Example 14, methyl ((1S)-1-(((2S)-2-(5-(7-(2-((2S)-1-((2S)-2-((methoxycarbonyl)amino)-3-methylbutanoyl)-2-pyrrolidinyl)-1H-imidazol-5-yl)-9,9-dimethyl-9H-fluoren-2-yl)-1H-imidazol-2-yl)-1-pyrrolidinyl)carbonyl)-2-methylpropyl)carbamate] reads 0.001 to 0.1 nM.

Staying with this experiment, now noted: Hepatitis C virus, value in nM, read-out: EC50 value against HCV 1b.
Regarding `COC(=O)N[C@H](C(=O)N1CCC[C@H]1c1ncc(-c2ccc3c(c2)CN(C)Cc2cc(-c4cnc([C@@H]5CCCN5C(=O)[C@@H](NC(=O)OC)C(C)C)[nH]4)ccc2-3)[nH]1)C(C)C` [Example 6, methyl ((1S)-1-(((2S)-2-(5-(9-(2-((2S)-1-((2S)-2-((methoxycarbonyl)amino)-3-methylbutanoyl)-2-pyrrolidinyl)-1H-imidazol-5-yl)-6-methyl-6,7-dihydro-5H-dibenzo[c,e]azepin-3-yl)-1H-imidazol-2-yl)-1-pyrrolidinyl)carbonyl)-2-methylpropyl) carbamate], the concentration for a half-maximal effect (EC50) amounted to 2 nM.

The same experiment, now with this note: Hepatitis C virus, value in pM, read-out: EC50 value against HCV 1b.
Consider `COC(=O)N[C@H](C(=O)N1CCC[C@H]1c1ncc(-c2ccc3c(c2)C(=O)c2cc(-c4cnc([C@@H]5CCCN5C(=O)[C@@H](NC(=O)OC)C(C)C)[nH]4)ccc2-3)[nH]1)C(C)C` [Example 1, methyl ((1S)-1-(((2S)-2-(5-(7-(2-((2S)-1-((2S)-2-((methoxycarbonyl)amino)-3-methylbutanoyl)-2-pyrrolidinyl)-1H-imidazol-5-yl)-9-oxo-9H-fluoren-2-yl)-1H-imidazol-2-yl)-1-pyrrolidinyl)carbonyl)-2-methylpropyl)carbamate], for which the EC50 turned out to be 0.009 nM.
In the case of `COC(=O)N[C@H](C(=O)N1CCC[C@H]1c1ncc(-c2ccc3c(c2)COCc2cc(-c4cnc([C@@H]5CCCN5C(=O)[C@@H](NC(=O)OC)[C@@H](C)OC)[nH]4)ccc2-3)[nH]1)[C@@H](C)OC` [Example 11, methyl ((1S,2R)-2-methoxy-1-(((2S)-2-(4-(9-(2-((2S)-1-(N-(methoxycarbonyl)-O-methyl-L-threonyl)-2-pyrrolidinyl)-1H-imidazol-4-yl)-5,7-dihydrodibenzo[c,e]oxepin-3-yl)-1H-imidazol-2-yl)-1-pyrrolidinyl)carbonyl)propyl)carbamate], the EC50 was determined as 0.146 nM.
Same read-out and setting: the result for `COC(=O)N[C@H](C(=O)N1CCC[C@H]1c1ncc(-c2ccc3c(c2)C(C)(C)c2cc(-c4cnc([C@@H]5CCCN5C(=O)[C@@H](NC(=O)OC)C5CC5)[nH]4)ccc2-3)[nH]1)C1CC1` [Example 15, dimethyl ((9,9-dimethyl-9H-fluorene-2,7-diyl)bis(1H-imidazole-5,2-diyl(2S)-2,1-pyrrolidinediyl((1S)-1-cyclopropyl-2-oxo-2,1-ethanediyl)))biscarbamate] reads 0.052 nM.

Usually EC50 stands for the concentration giving half of the maximal effect.

The record behind these values is US7704992B2, “Hepatitis C virus inhibitors” (Bristol-Myers Squibb Company, priority 2008, dated 2010).
